Test results as given in publication PMC3187749, “Discovery of Diverse Small Molecule Chemotypes with Cell-Based PKD1 Inhibitory Activity” (PLoS ONE, 2011).

Tests used:
Assay type in all cases: biochemical
recombinant human PKD1 [1] = biological target: T1, recombinant human PKD1 (Homo sapiens, UniProt Q15139); assay: In vitro radiometric PKD1 kinase assay; details: radiometric PKD1 kinase assay; mean ± range or SD of 2–4 independent experiments; read-out: In vitro PKD1 IC50
T1 construct: His; purchased Millipore (Billerica, MA)
T1 sequence (Q15139 1-912): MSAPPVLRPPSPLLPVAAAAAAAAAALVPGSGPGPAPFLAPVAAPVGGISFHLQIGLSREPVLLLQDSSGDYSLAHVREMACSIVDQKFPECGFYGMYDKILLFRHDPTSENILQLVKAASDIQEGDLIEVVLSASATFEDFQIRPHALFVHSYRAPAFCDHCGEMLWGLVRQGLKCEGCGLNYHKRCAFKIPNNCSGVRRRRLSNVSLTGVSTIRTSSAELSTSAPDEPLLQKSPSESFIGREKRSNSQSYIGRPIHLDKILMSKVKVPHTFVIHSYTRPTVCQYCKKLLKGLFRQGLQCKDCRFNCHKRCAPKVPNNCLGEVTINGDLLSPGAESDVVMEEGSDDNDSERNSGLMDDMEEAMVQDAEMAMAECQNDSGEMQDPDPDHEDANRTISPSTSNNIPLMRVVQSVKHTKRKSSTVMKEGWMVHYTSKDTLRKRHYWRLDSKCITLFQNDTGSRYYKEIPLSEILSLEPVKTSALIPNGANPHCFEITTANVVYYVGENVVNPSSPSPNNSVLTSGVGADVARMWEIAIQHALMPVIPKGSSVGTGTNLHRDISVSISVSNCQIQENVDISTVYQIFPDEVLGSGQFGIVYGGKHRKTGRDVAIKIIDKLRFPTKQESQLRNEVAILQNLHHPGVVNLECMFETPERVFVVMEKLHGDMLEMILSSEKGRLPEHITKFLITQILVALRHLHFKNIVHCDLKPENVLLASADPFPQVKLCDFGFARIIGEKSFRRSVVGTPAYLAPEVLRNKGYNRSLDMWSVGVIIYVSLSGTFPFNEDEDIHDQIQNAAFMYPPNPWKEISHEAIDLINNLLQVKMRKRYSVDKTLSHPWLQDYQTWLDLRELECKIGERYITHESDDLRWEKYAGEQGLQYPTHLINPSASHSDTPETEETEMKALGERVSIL
Experimental: (§1) Kinase reactions were initiated with the addition of ATP (50 µM ATP, 1.0 µCi γ-^33P-ATP; Perkin Elmer, Boston, MA) and incubated for 20 min at 30°C. Twenty-five µL of the reaction was spotted onto Whatman P81 filter paper (Whatman Inc., Clifton, NJ). Filter papers were then washed three times in 0.5% phosphoric acid, air-dried, and counted using an LS6500 multi-purpose scintillation counter (Beckman Coulter, Fullerton, CA). IC50 determinations were performed using GraphPad Prism software 5.0. Radiometric PKD2 and PKD3 in vitro kinase assays were performed as previously described.

PKD2 = biological target: T2, PKD2 (Homo sapiens, UniProt Q9BZL6); assay: Radiometric PKD2 in vitro kinase assay; details: preliminary in vitro data
T2 sequence (Q9BZL6 1-878): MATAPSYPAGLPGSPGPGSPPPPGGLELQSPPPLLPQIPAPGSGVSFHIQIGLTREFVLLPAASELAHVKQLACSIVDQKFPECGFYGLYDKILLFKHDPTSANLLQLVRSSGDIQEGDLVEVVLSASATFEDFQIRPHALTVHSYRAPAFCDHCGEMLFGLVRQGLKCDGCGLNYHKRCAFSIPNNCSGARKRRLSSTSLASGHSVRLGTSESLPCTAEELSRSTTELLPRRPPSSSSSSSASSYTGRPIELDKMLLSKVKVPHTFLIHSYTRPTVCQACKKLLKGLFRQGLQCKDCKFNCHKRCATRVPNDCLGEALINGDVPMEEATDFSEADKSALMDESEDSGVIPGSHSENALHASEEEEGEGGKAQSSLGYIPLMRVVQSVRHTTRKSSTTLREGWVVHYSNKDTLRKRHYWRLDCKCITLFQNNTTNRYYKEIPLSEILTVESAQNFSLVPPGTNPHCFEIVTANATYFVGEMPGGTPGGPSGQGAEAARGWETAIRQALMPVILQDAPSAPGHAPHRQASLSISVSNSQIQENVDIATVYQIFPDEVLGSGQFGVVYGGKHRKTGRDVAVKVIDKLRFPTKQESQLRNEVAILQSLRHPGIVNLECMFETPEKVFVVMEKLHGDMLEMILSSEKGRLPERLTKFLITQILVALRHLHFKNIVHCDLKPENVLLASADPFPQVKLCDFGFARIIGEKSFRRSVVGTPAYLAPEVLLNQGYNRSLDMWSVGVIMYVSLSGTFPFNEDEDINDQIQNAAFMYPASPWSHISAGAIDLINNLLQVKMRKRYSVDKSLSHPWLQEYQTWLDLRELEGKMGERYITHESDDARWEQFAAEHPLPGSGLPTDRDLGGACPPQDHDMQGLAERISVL
Experimental: as §1

PLK1 = assay: IMAP-based PLK1 counter screen; details: concentrations up to 50 µM
Text: (§2) It was also gratifying that, in general, our novel cell active PKD1 inhibitors appeared to be less promiscuous than PKD1 inhibitors having minimal to no cellular PKD1 inhibitory activity (Table 1). For example, CIDs 755673 and 1893668 display additional confirmed activity in six and seven, respectively, PubChem bioassays while CID 2011756 has confirmed activity in only one additional PubChem bioassay. […] In contrast, the remaining chemotypes registered as confirmed actives in 2–43 additional bioassays (Table 1). Additional chemical similarity searching, focusing on our four novel cell-active PKD1 inhibitory chemotypes, using MetaDrug also supports a comparative lack of promiscuity of these compounds.

CDK7 = assay: IMAP-based CDK7 counter screen; details: concentrations up to 50 µM
Text: as §2

AKT = assay: IMAP-based AKT counter screen; details: concentrations up to 50 µM
Text: as §2

recombinant human PKD1 [2] = biological target: T1, recombinant human PKD1; assay: ATP competition studies (radiometric PKD1 assay, Michaelis-Menten/Lineweaver-Burk); details: PKD1, ATP 12.5–1000 µM
Experimental: For ATP competition studies, recombinant human PKD1 (1 ng/µL) and Syntide-2 substrate peptide (200 ng/µl) in kinase buffer were incubated with a concentration range of test compound. Kinase reactions were initiated with a concentration range of cold ATP (12.5–1000 µM) supplemented with 1.0 µCi γ-^33P-ATP (Perkin Elmer) and processed as described above. Enzyme inhibition was analyzed and visualized using the Michaelis-Menten and Lineweaver-Burk functions of GraphPad Prism 5.0.

For `O=C(Nc1ccc(CN2CCOCC2)cc1)c1ccc(-c2cccc(Cl)c2)o1` [CID 2011756, 5-(3-chlorophenyl)-N-[4-(morpholin-4-ylmethyl)phenyl]furan-2-carboxamide], the IC50 (recombinant human PKD1 [1]) was 3200 ± 100 nM, the IC50 (PKD2) was 600 ± 100 nM and the PLK1 kinase inhibition (PLK1) was “no kinase inhibition”. For the same molecule, the CDK7 kinase inhibition (CDK7) was “no kinase inhibition”, the AKT kinase inhibition (AKT) was “no kinase inhibition” and the “Mechanism of Action (with respect to ATP)” value (recombinant human PKD1 [2]) was “ATP competitive”.
